The target of one experiment is T1, ER (Homo sapiens, UniProt P03372).
T1 construct: endogenous in cells; probably T47D or MCF-7
T1 sequence (P03372 1-595): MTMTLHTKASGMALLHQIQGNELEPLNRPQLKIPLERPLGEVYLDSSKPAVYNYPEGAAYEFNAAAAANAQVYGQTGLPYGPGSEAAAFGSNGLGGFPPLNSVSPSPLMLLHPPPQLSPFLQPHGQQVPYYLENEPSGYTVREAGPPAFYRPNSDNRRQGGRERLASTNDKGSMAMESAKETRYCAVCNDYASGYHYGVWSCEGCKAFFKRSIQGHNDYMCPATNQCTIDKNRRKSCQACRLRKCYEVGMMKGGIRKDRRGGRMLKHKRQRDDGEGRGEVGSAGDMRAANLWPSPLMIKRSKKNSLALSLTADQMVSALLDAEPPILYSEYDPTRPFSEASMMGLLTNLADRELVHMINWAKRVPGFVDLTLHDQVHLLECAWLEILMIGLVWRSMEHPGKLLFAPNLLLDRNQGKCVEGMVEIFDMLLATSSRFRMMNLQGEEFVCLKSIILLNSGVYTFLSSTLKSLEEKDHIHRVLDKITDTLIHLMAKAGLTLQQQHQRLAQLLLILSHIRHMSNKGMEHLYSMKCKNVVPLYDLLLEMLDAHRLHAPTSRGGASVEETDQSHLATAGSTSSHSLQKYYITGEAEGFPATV
As to the kind of experiment: In-cell western blot analysis, relative ER percentage (compounds B1-B126). The experiment is classed as cell-based. The note with it: ER degradation, 16 hours, read-out: ICW DC50. An outline of the steps:
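Readout was a two-colour infrared in-cell western of formaldehyde-fixed cells after 16 h compound exposure at 0.5% DMSO, with 40,000 or 10,000 cells/well plated the previous night. Relative ER percentage compares treated wells against untreated/DMSO-treated wells taken as 100%.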

A short description of experiment [1]: Cell growth assay, WST-8 (compounds B1-B126). The experiment is classed as cell-based. Conditions: 96 h; T47D cell line, WST-8, 4 days; read-out: Cell growth inhibition in T47D cell line IC50. The essentials:
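Read-out is WST-8 absorbance at 450 nm (2.5 h, 37° C) as a fraction of vehicle control, from three separate repeats. Compound exposure lasted 4 days, starting one day after plating 1500 cells/well.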
On the technique in general: Tetrazolium assays rely on reduction of a dye to a coloured formazan, in cell work by metabolically active cells.

Drawing on patent publication US20260256925A1, “INDAZOLE DERIVATIVES AS ESTROGEN RECEPTOR DEGRADERS” (REGENTS OF THE UNIVERSITY OF MICHIGAN, priority 2022, published 2026), this text covers DC50 and IC50 for 10 compounds.

SMILES strings stand for the structures.

By DC50 is commonly meant the concentration giving 50% degradation. For orientation: IC50 means the concentration that gives 50% inhibition. `C[C@@H]1Cc2c(ccc3[nH]ncc23)[C@@H](c2ccc(N3CCC4(CCC(CN5CCC6(CC5)COc5c6ccc6c5CN([C@H]5CCC(=O)NC5=O)C6=O)CO4)CC3)nn2)N1CC(F)(F)F` (stereo partly drawn) [Compound B128, (3S)-3-(1′-((9-(6-((6S,8R)-8-methyl-7-(2,2,2-trifluoroethyl)-6,7,8,9-tetrahydro-3H-pyrazolo[4,3-f]isoquinolin-6-yl)pyridazin-3-yl)-1-oxa-9-azaspiro[5.5]undecan-3-yl)methyl)-6-oxo-6,8-dihydro-2H,7H-spiro[furo[2,3-e]isoindole-3,4′-piperidin]-7-yl)piperidine-2,6-dione]: the DC50 at ER was less than 10 nM. Besides, in experiment [1], the IC50 is less than 1 nM.
The corresponding values for `C[C@@H]1Cc2c(ccc3[nH]ncc23)[C@@H](c2c(F)cc(N3CCC(CN4CCC5(CC4)COc4c5ccc5c4CN(C4CCC(=O)NC4=O)C5=O)CC3)cc2F)N1CC(F)F` (stereo partly drawn) [Compound B114, 3-(1′-((1-(4-((6S,8R)-7-(2,2-difluoroethyl)-8-methyl-6,7,8,9-tetrahydro-3H-pyrazolo[4,3-f]isoquinolin-6-yl)-3,5-difluorophenyl)piperidin-4-yl)methyl)-6-oxo-6,8-dihydro-2H,7H-spiro[furo[2,3-e]isoindole-3,4′-piperidin]-7-yl)piperidine-2,6-dione] are greater than 100 nM and less than 1 nM.
The corresponding values for `C[C@@H]1Cc2c(ccc3[nH]ncc23)[C@@H](c2ccc(N3CCC4(CC3)CC(CN3CCC5(CC3)COc3c5ccc5c3CN(C3CCC(=O)NC3=O)C5=O)CO4)cn2)N1CC(F)(F)F` (stereo partly drawn) [Compound B95, 3-(1′-((8-(6-((6S,8R)-8-methyl-7-(2,2,2-trifluoroethyl)-6,7,8,9-tetrahydro-3H-pyrazolo[4,3-f]isoquinolin-6-yl)pyridin-3-yl)-1-oxa-8-azaspiro[4.5]decan-3-yl)methyl)-6-oxo-6,8-dihydro-2H,7H-spiro[furo[2,3-e]isoindole-3,4′-piperidin]-7-yl)piperidine-2,6-dione] are greater than 100 nM and less than 1 nM.
The corresponding values for `C[C@@H]1Cc2c(ccc3[nH]ncc23)[C@@H](c2ccc(N3CCC4(CC3)CC(CN3CCN5c6ccc7c(c6OC[C@H]5C3)CN(C3CCC(=O)NC3=O)C7=O)C4)cn2)N1CC(F)(F)F` (stereo partly drawn) [Compound B106, 3-((R)-7-((7-(6-((6S,8R)-8-methyl-7-(2,2,2-trifluoroethyl)-6,7,8,9-tetrahydro-3H-pyrazolo[4,3-f]isoquinolin-6-yl)pyridin-3-yl)-7-azaspiro[3.5]nonan-2-yl)mcthyl)-1-oxo-1,3,5,5a,6,7,8,9-octahydro-2H-pyrazino[1′,2′:4,5][1,4]oxazino[2,3-e]isoindol-2-yl)piperidine-2,6-dione] are less than 10 nM and less than 1 nM.
On to `COc1cc(N2CCC3(CC2)CC(CN2CCN4c5cc6c(cc5OC[C@@H]4C2)C(=O)N(C2CCC(=O)NC2=O)C6)CO3)ccc1[C@@H]1c2ccc3[nH]ncc3c2C[C@@H](C)N1CC(F)F` (stereo partly drawn) [Compound B79, 3-((4aS)-3-((8-(4-((6S,8R)-7-(2,2-difluoroethyl)-8-methyl-6,7,8,9-tetrahydro-3H-pyrazolo[4,3-f]isoquinolin-6-yl)-3-methoxyphenyl)-1-oxa-8-azaspiro[4.5]decan-3-yl)methyl)-8-oxo-1,2,3,4,4a,5,8,10-octahydro-9H-pyrazino[1′,2′:4,5][1,4]oxazino[2,3-f]isoindol-9-yl)piperidine-2,6-dione], for which, on ER, the DC50 is less than 10 nM. Also, in experiment [1], the half-maximal inhibitory concentration (IC50) is less than 1 nM.
For the compound `C[C@@H]1Cc2c(ccc3[nH]ncc23)[C@@H](c2c(F)cc(NC3CN(C(=O)CN4CCN5c6ccc7c(c6OC[C@H]5C4)CN(C4CCC(=O)NC4=O)C7=O)C3)cc2F)N1CC(F)F` (stereo partly drawn) [Compound B100, 3-((R)-7-(2-(3-((4-((6S,8R)-7-(2,2-difluoroethyl)-8-methyl-6,7,8,9-tetrahydro-3H-pyrazolo[4,3-f]isoquinolin-6-yl)-3,5-difluorophenyl)amino)azetidin-1-yl)-2-oxoethyl)-1-oxo-1,3,5,5a,6,7,8,9-octahydro-2H-pyrazino[1′,2′:4,5][1,4]oxazino[2,3-e]isoindol-2-yl)piperidine-2,6-dione], the DC50 on ER was 10 to 100 nM. The half-maximal inhibitory concentration (IC50) in experiment [1] was in the range of 1 to 10 nM.
The corresponding values for `C[C@@H]1Cc2c(ccc3[nH]ncc23)[C@@H](c2ccc(N3CCC4(CC3)CC(CN3CCN5c6cc7c(cc6OC[C@@H]5C3)C(=O)N(C3CCC(=O)NC3=O)C7)CO4)cn2)N1CC(F)(F)F` (stereo partly drawn) [Compound B94, 3-((4aS)-3-((8-(6-((6S,8R)-8-methyl-7-(2,2,2-trifluoroethyl)-6,7,8,9-tetrahydro-3H-pyrazolo[4,3-f]isoquinolin-6-yl)pyridin-3-yl)-1-oxa-8-azaspiro[4.5]decan-3-yl)methyl)-8-oxo-1,2,3,4,4a,5,8,10-octahydro-9H-pyrazino[1′,2′:4,5][1,4]oxazino[2,3-f]isoindol-9-yl)piperidine-2,6-dione] are less than 10 nM and less than 1 nM.
For `C[C@@H]1Cc2c(ccc3[nH]ncc23)[C@@H](c2ccc(N3CC4(CCC(CN5CCC6(CCOc7c6ccc6c7CN(C7CCC(=O)NC7=O)C6=O)CC5)CC4)C3)cn2)N1CC(F)(F)F` (stereo partly drawn) [Compound B58, 3-(1-((2-(6-((6S,8R)-8-methyl-7-(2,2,2-trifluoroethyl)-6,7,8,9-tetrahydro-3H-pyrazolo[4,3-f]isoquinolin-6-yl)pyridin-3-yl)-2-azaspiro[3.5]nonan-7-yl)methyl)-7′-oxo-2′,3′,7′,9′-tetrahydro-8′H-spiro[piperidine-4,4′-pyrano[2,3-e]isoindol]-8′-yl)piperidine-2,6-dione] the same measures were greater than 100 nM and less than 1 nM.
The corresponding values for `C[C@@H]1Cc2c(ccc3[nH]ncc23)[C@@H](c2c(F)cc(NC3CC4(C3)CN(C(=O)CN3Cc5cc6c(cc5C3)C(=O)N(C3CCC(=O)NC3=O)C6=O)C4)cc2F)N1CC(F)F` (stereo partly drawn) [Compound B44, 6-(2-(6-((4-((6S,8R)-7-(2,2-difluoroethyl)-8-methyl-6,7,8,9-tetrahydro-3H-pyrazolo[4,3-f]isoquinolin-6-yl)-3,5-difluorophenyl)amino)-2-azaspiro[3.3]heptan-2-yl)-2-oxoethyl)-2-(2,6-dioxopiperidin-3-yl)-6,7-dihydropyrrolo[3,4-f]isoindole-1,3(2H,5H)-dione] are less than 10 nM and less than 1 nM.
Consider `C[C@@H]1Cc2c(ccc3[nH]ncc23)[C@@H](c2c(F)cc(C3CCN(C(=O)CN4CCN5c6cc7c(cc6OC[C@@H]5C4)C(=O)N(C4CCC(=O)NC4=O)C7)CC3)cc2F)N1CC(F)F` (stereo partly drawn) [Compound B28, 3-((S)-3-(2-(4-(4-((6S,8R)-7-(2,2-difluoroethyl)-8-methyl-6,7,8,9-tetrahydro-3H-pyrazolo[4,3-f]isoquinolin-6-yl)-3,5-difluorophenyl)piperidin-1-yl)-2-oxoethyl)-8-oxo-1,2,3,4,4a,5,8,10-octahydro-9H-pyrazino[1′,2′:4,5][1,4]oxazino[2,3-f]isoindol-9-yl)piperidine-2,6-dione], for which the DC50 at ER lay in the range of 10 to 100 nM. Moreover, the concentration for half-maximal inhibition (IC50) in experiment [1] was less than 1 nM.
